Molecules are shown by their SMILES. Counter-ions that a name gives are not always drawn. A value given as a limit tells only on which side of the number the result lay.

Tested on in the first series: not given
Experiment: not given
Conditions: not given
Turning to `CC(C)(C)c1cc(-c2csc(C3(N)CCOCC3)n2)cc(C(C)(C)C)c1` [Example 10, {4-[4-(3,5-di-tert-butylphenyl)-1,3-thiazol-2-yl]tetrahydro-2H-pyran-4-yl}amine], the melting point is 114 to 114.4 °C.
Compound `COc1c(C(C)(C)C)cc(-c2csc(C3(N)CCOCC3)n2)cc1C(C)(C)C` [Example 1, {4-[4-(3,5-di-tert-butyl-4-methoxyphenyl)-1,3-thiazol-2-yl]tetrahydro-2H-pyran-4-yl}amine] gave a melting point of 128.4 to 129.7 °C.
Regarding `CN(C)C1(c2nc(-c3ccc(Oc4ccccc4)cc3)cs2)CCOCC1` (as salt: hydrochloride) [Example 16, N,N-dimethyl-4-[4-(4-phenoxyphenyl)-1,3-thiazol-2-yl]tetrahydro-2H-pyran-4-amine hydrochloride], the melting point lay within 213 to 223.2 °C.
The compound `CN(C)C1(c2nc(-c3ccc(Sc4ccccc4)cc3)cs2)CCOCC1` (as salt: hydrochloride) [Example 33, N,N-dimethyl-4-{4-[4-(phenylthio)phenyl]-1,3-thiazol-2-yl}tetrahydro-2H-pyran-4-amine hydrochloride] yielded a melting point of 215 to 218.8 °C.
Regarding `CN(C)C1(c2nc(-c3ccc(Cc4ccccc4)cc3)cs2)CCOCC1` (as salt: hydrochloride) [Example 29, {4-[4-(4-benzylphenyl)-1,3-thiazol-2-yl]tetrahydro-2H-pyran-4-yl}dimethylamine hydrochloride], the melting point lay within 228.4 to 229.5 °C.
`CN(C)C1(c2nc(-c3ccc(C(C)(C)C)cc3)cs2)CCOCC1` (as salt: hydrochloride) [Example 8, {4-[4-(4-tert-butylphenyl)-1,3-thiazol-2-yl]tetrahydro-2H-pyran-4-yl}dimethylamine hydrochloride] returned a melting point of 205 to 207 °C.
Take `CN(C)C1(c2nc(-c3cc(C(F)(F)F)cc(C(F)(F)F)c3)cs2)CCOCC1` (as salt: hydrochloride) [Example 9, (4-{4-[3,5-bis(trifluoromethyl)phenyl]-1,3-thiazol-2-yl}tetrahydro-2H-pyran-4-yl)dimethylamine hydrochloride]: the melting point is 232.2 to 233 °C.

The target of another series is T1, human CB2 receptors (Homo sapiens, UniProt P34972).
T1 construct: expressed in transfected cells; membranes prepared from them
T1 sequence (P34972 whole entry): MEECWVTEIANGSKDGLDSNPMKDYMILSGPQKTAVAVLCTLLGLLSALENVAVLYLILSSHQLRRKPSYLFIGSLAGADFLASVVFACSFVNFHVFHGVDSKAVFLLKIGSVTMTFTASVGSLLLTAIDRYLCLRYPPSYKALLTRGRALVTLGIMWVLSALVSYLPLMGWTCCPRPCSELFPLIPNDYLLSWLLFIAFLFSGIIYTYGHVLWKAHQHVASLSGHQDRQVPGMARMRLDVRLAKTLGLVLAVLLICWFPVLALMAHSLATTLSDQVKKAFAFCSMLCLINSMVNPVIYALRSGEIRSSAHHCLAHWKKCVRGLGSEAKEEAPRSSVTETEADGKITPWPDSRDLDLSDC
In words: Affinity for human CB2 receptors: inhibition of [3H]-CP55940 binding to membranes of transfected CHO-K1 cells.
Conditions: not given
The procedure:
Study of the Affinity of the Compounds for Human Cannabinoid CB2 Receptors
The affinity of the compounds of the invention for human CB2 receptors was determined by measuring inhibition of [^3H]-CP55940 binding to membrane preparations produced from transfected CHO-K1 cells.
CHO-K1 cells stably expressing human CB2 receptors were cultured in RPMI 1640 medium supplemented with 10% foetal calf serum, 2 mM glutamine, 100 U/ml penicillin, 0.1 mg/ml streptomycin and 0.5 mg/ml G418. The cells were collected using 0.5 mM EDTA and centrifuged at 500 g for 5 min at 4° C. The cell pellet was resuspended in phosphate buffered saline (PBS) and centrifuged at 500 g for 5 min at 4° C. The pellet was resuspended in 50 mM tris buffer pH 7.4 and centrifuged at 500 g for 5 min at 4° C. The cells were lysed by sonication and centrifuged at 39,000 g for 10 min at 4° C. The pellet was resuspended in 50 mM tris buffer pH 7.4 and centrifuged at 50,000 g for 10 min at 4° C. The membranes obtained in this final pellet were stored at −80° C.
Competitive inhibition of the binding of [^3H]-CP55940 to CB2 receptors was determined in duplicate in 96-well polypropylene plates. Cell membranes (10 μg of protein/well) were incubated with [^3H]-CP55940 (1 nM) for 60 min at 25° C. in 50 mM Tris-HCl buffer, pH 7.4, containing 0.1% bovine serum albumin (BSA), 5 mM MgCl2, and 50 μg/ml of bacitracin.
Bound [^3H]-CP55940 was separated from free [^3H]-CP55940 by filtration through GF/C fibre glass filter plates (Unifilter, Packard) pre-impregnated with 0.1% polyethylenimine (P.E.I.), using a Filtermate 196 (Packard). The filters were washed with 50 mM Tris-HCl buffer, pH 7.4 at 0-4° C. and the radioactivity present was determined using a counter (Packard Top Count).
Specific binding was obtained by subtracting non-specific binding (determined in the presence of 0.1 μM WIN55212-2) from total binding. The data were analysed by computer-assisted nonlinear regression (MDL). For each test, the IC50 value was converted to a Ki value (inhibition constant) using the Cheng-Prusoff equation.
where [L] is the concentration of the radioligand used in the assay and Kd is the dissociation constant of the radioligand at equilibrium.
The compound `COc1ccc(-c2csc(C3(N(C)C)CCOCC3)n2)cc1C(C)(C)C` [Example 14, {4-[4-(3-tert-butyl-4-methoxyphenyl)-1,3-thiazol-2-yl]tetrahydro-2H-pyran-4-yl}dimethylamine hydrochloride] had a Ki of 500 to 1000 nM.
The same measure, in the same setting: in the case of `CC(C)(C)c1cc(-c2csc(C3(N4CCCCC4)CCOCC3)n2)cc(C(C)(C)C)c1O` [Example 20, 2,6-di-tert-butyl-4-[2-(4-piperidin-1-yltetrahydro-2H-pyran-4-yl)-1,3-thiazol-4-yl]phenol hydrochloride] it was at most 100 nM; in that of `CN(C)C1(c2nc(-c3cc(C(C)(C)C)c(O)c(C(C)(C)C)c3)co2)CCOCC1` [Example 15, 2,6-di-tert-butyl-4-{2-[4-(dimethylamino)tetrahydro-2H-pyran-4-yl]-1,3-oxazol-4-yl}phenol hydrochloride], at most 100 nM.
Take `COc1c(Cl)cc(-c2csc(C3(N(C)C)CCOCC3)n2)cc1C(C)(C)C` [Example 13, {4-[4-(3-tert-butyl-5-chloro-4-methoxyphenyl)-1,3-thiazol-2-yl]tetrahydro-2H-pyran-4-yl}dimethylamine hydrochloride]: the Ki lay within 100 to 500 nM.
On to `CN(C)C1(c2nc(-c3cc(C(C)(C)C)c(O)c(C(C)(C)C)c3)cs2)CCOC1` (stereo not shown) [Example 7, 2,6-di-tert-butyl-4-{2-[3-(dimethylamino)tetrahydrofuran-3-yl]-1,3-thiazol-4-yl}phenol hydrochloride], for which the Ki was 100 to 500 nM.
`COc1c(C(C)(C)C)cc(-c2nc(C3(N(C)C)CCOCC3)sc2C)cc1C(C)(C)C` [Example 25, {4-[4-(3,5-di-tert-butyl-4-methoxyphenyl)-5-methyl-1,3-thiazol-2-yl]tetrahydro-2H-pyran-4-yl}dimethylamine hydrochloride] registered a Ki of 100 to 500 nM.
Take `CN(C)C1(c2nc(-c3cc(C(C)(C)C)c(O)c(C(C)(C)C)c3)cs2)CCSCC1` [Example 6, 2,6-di-tert-butyl-4-{2-[4-(dimethylamino)tetrahydro-2H-thiopyran-4-yl]-1,3-thiazol-4-yl}phenol hydrochloride]: the Ki was at most 100 nM.
`COc1c(C(C)(C)C)cc(-c2csc(C3(N(C)C)CCOCC3)n2)cc1C(C)(C)C` [Example 2, {4-[4-(3,5-di-tert-butyl-4-methoxyphenyl)-1,3-thiazol-2-yl]tetrahydro-2H-pyran-4-yl}dimethylamine hydrochloride] had a Ki of at most 100 nM.
Still for that read-out and setting: for `CC(C)(C)c1cc(-c2csc(C3(N4CCOCC4)CCOCC3)n2)cc(C(C)(C)C)c1O` [Example 21, 2,6-di-tert-butyl-4-[2-(4-morpholin-4-yltetrahydro-2H-pyran-4-yl)-1,3-thiazol-4-yl]phenol] the value was 100 to 500 nM.

Still in this series, the particulars now being: [3H]-CP55940 (1 nM) competition, CHO-K1 membranes; IC50 converted to Ki by Cheng-Prusoff; read-out: affinity for the CB2 receptor.
As for `CN(C)C1(c2nc(-c3ccc(C(C)(C)C)cc3)cs2)CCOCC1` [Example 8, {4-[4-(4-tert-butylphenyl)-1,3-thiazol-2-yl]tetrahydro-2H-pyran-4-yl}dimethylamine hydrochloride], the Ki lay within 100 to 500 nM.
`CN1CCC(c2nc(-c3cc(C(C)(C)C)c(O)c(C(C)(C)C)c3)cs2)(N(C)C)CC1` [Example 23, 2,6-di-tert-butyl-4-{2-[4-(dimethylamino)-1-methylpiperidin-4-yl]-1,3-thiazol-4-yl}phenol hydrochloride]: the Ki is 100 to 500 nM.
The same measure, in the same setting: for `CN(C)C1(c2nc(-c3ccc(Sc4ccccc4)cc3)cs2)CCOCC1` [Example 33, N,N-dimethyl-4-{4-[4-(phenylthio)phenyl]-1,3-thiazol-2-yl}tetrahydro-2H-pyran-4-amine hydrochloride] the value was 500 to 1000 nM; for `CN(C)C1(c2nc(-c3cc(C(C)(C)C)c(O)c(C(C)(C)C)c3)cs2)CCOCC1` [Example 4, 2,6-di-tert-butyl-4-{2-[4-(dimethylamino)tetrahydro-2H-pyran-4-yl]-1,3-thiazol-4-yl}phenol hydrochloride], at most 100 nM; for `CCN(CC)C1(c2nc(-c3cc(C(C)(C)C)c(O)c(C(C)(C)C)c3)cs2)CCOCC1` [Example 18, 2,6-di-tert-butyl-4-{2-[4-(diethylamino)tetrahydro-2H-pyran-4-yl]-1,3-thiazol-4-yl}phenol hydrochloride], at most 100 nM.
For `CN(C)C1(c2nc(-c3ccc(Oc4ccccc4)cc3)cs2)CCOCC1` [Example 16, N,N-dimethyl-4-[4-(4-phenoxyphenyl)-1,3-thiazol-2-yl]tetrahydro-2H-pyran-4-amine hydrochloride], the Ki lay within 100 to 500 nM.
Turning to `CCN(CC)c1ccc(-c2csc(C3(N(C)C)CCOCC3)n2)cc1` [Example 28, (4-{4-[4-(diethylamino)phenyl]-1,3-thiazol-2-yl}tetrahydro-2H-pyran-4-yl)dimethylamine hydrochloride], the Ki lay within 500 to 1000 nM.
The same measure, in the same setting: in the case of `CNC1(c2nc(-c3cc(C(C)(C)C)c(O)c(C(C)(C)C)c3)cs2)CCOCC1` [Example 19, 2,6-di-tert-butyl-4-{2-[4-(methylamino)tetrahydro-2H-pyran-4-yl]-1,3-thiazol-4-yl}phenol hydrochloride] it was 100 to 500 nM; in that of `CN(C)C1(c2nc(-c3cc(C(C)(C)C)cc(C(C)(C)C)c3)cs2)CCOCC1` [Example 11, {4-[4-(3,5-di-tert-butylphenyl)-1,3-thiazol-2-yl]tetrahydro-2H-pyran-4-yl}dimethylamine hydrochloride], 100 to 500 nM.
`CN(C)C1(c2nc(-c3ccc(Cc4ccccc4)cc3)cs2)CCOCC1` [Example 29, {4-[4-(4-benzylphenyl)-1,3-thiazol-2-yl]tetrahydro-2H-pyran-4-yl}dimethylamine hydrochloride]: the Ki is 500 to 1000 nM.
On to `CCNC1(c2nc(-c3cc(C(C)(C)C)c(O)c(C(C)(C)C)c3)cs2)CCOCC1` [Example 17, 2,6-di-tert-butyl-4-{2-[4-(ethylamino)tetrahydro-2H-pyran-4-yl]-1,3-thiazol-4-yl}phenol], for which the Ki is 100 to 500 nM.
On to `CN(C)C1(c2nc(-c3ccc(Oc4ccc([N+](=O)[O-])cc4)cc3)cs2)CCOCC1` [Example 32, N,N-dimethyl-4-{4-[4-(4-nitrophenoxy)phenyl]-1,3-thiazol-2-yl}tetrahydro-2H-pyran-4-amine hydrochloride], for which the Ki fell in the range of 100 to 500 nM.

(Values after patent publication US20110059970A1, “4-PHENYL-1,3-THIAZOLES AND 4-PHENYL-1,3-OXAZOLES DERIVATIVES AS CANNABINOID RECEPTOR LIGANDS” (IPSEN PHARMA S.A.S., priority 2007, published 2011).)
